Test results reported in US3983120A, “Process for the preparation of optionally substituted 1,2,3,5-tetrahydroimidazo[2,1-b]quinazolin-2-ones” (Bristol-Myers Company, priority 1974, dated 1976).

Columns and labels:
[1] = system: ADP-induced aggregation of blood platelet-rich plasma; experiment: In Vivo/In Vitro platelet aggregation (ADP) after I.P. dosing of rabbits; conditions: Oryctolagus cuniculus, ip, 2 h, dose for 50% inhibition of aggregation, one to two hours after dosing
Procedure: (§1) *In vivo/In vitro testing:
(§2) Before dosing the animals, blood samples are taken. The blood is centrifuged to obtain the blood platelet-rich plasma. Aggregation of this plasma is induced with ADP or collagen. This is the control.
(§3) The animals are then dosed with the compounds to be tested (orally or parenterally). Depending upon the route of administration, one to two hours are allowed to elapse after dosing. Blood is drawn and the same procedure employed as for the control is untreated animals.
The dose required to produce 50% inhibition of the aggregation is determined by dose response data obtained in this manner.

[2] = system: ADP-induced aggregation of blood platelet-rich plasma; experiment: In Vivo/In Vitro platelet aggregation (ADP) after P.O. dosing of dogs; conditions: one to two hours after dosing
Procedure: as §1, §2, §3

[3] = literature, in words; cited from earlier work

| Structure (SMILES) | ED50 [1] [mg/kg] | In Vivo/In Vitro Dogs P.O. 5 mg./kg. ADP % Inhibition [2] [%] | antihypertensive / hypotensive activity of prior art compounds [3] |
| --- | --- | --- | --- |
| CC1c2ccccc2N=C2NC(=O)CN21 (stereo not drawn) [Compound 29] | 7 | 35 | – |
| c1ccc2c(c1)CN1CCNC1=N2 [SPC2] | – | – | potent antihypertensive activity in rats, dogs, cats and rabbits |
